# Measurements published in paper PMC8150775, “Repositioning Azelnidipine as a Dual Inhibitor Targeting CD47/SIRPα and TIGIT/PVR Pathways for Cancer Immuno-Therapy” (Biomolecules, 2021).
# Legend:
# [1] = test system: THP-1 macrophages; set-up: method as in PMID 29398679, PMID 20606305; conditions: cited from earlier work
# [2] = test system: MC38 cells; assay: Phagocytosis assay, BMDM co-cultured with GFP+ MC38 cells; format: cell-based, mouse; conditions: 20 μM, 4 h
# Experimental: Bone marrow-derived macrophage (BMDM) cells were isolated from C57BL/6 or BALB/c mice and induced with 20 ng/mL of GM-CSF (Peprotech, Rocky Hill, CT, USA) for 7 days. Meanwhile, the medium was replaced with fresh medium containing the cytokine and the adherent cells were harvested. Phagocytosis assays were performed by a co-culture of the BMDM macrophages with carboxyfluorescein succinimidyl ester-labeled (CFSE^+) or GFP^+ tumor cells at a ratio of 1:4 in a serum-free medium at 37 °C for 4 h, in low-attachment 96-well tissue culture plates (Corning, New York, NY, USA). The cells were harvested and the macrophages were identified by a flow cytometry using anti-F4/80 antibody (eBioscience, San Diego, CA, USA). Then, 7-AAD (eBioscience) was used to exclude the dead cells. The effects of azelnidipine (20 μM) on phagocytosis by BMDM cells were tested, and the anti-CD47 antibody (clone: miap301) were used as the positive control. Phagocytosis rate was determined with the formulation: F4/80^+GFP^+ or F4/80^+CFSE^+ cells/ Total F4/80^+ cells.
# Figure 4 Azelnidipine enhances macrophage mediated phagocytosis of the tumor cells. The effects of the azelnidipine on the phagocytosis of the macrophages were tested by a co-culture of the tumor cells and BMDM cell derived from C57BL/6 or BALB/c mice. […] GFP^+ or CFSE^+ BMDMs were detected by a flow cytometry. […]
# [3] = biological target: T1, CD47/SIRPα interaction (Homo sapiens, UniProt P78324); assay: Blocking assay by flow cytometry, preliminary screening at a single concentration, CD47/SIRPα; format: binding; conditions: preliminary test, single concentration of 100 μM
# T1 construct: purchased ACRO Biosystem SIA-H5251; host or cells: CHOK1-CD47 cells (lenti-viral transfection)
# Experimental: The abilities of small molecule inhibitors (SMIs) (purchased from TargetMol, Shanghai, China) to block the binding of SIRPα protein to CHOK1-CD47 cells or PVR protein to CHOK1-TIGIT cells were determined by flow cytometry, as previously reported. The SMIs at indicated concentrations were incubated with Fc-tagged SIRPα or PVR protein for 30 min at 4°C, followed by incubating with the indicated cells for another 30 min. Human SIRPα protein (SIA-H5251, ACRO Biosystem, Beijing, China), mouse SIRPα protein (SIA-M5258, ACRO Biosystem, Beijing, China), human PVR protein (CD5-H82F6, ACRO Biosystem, Beijing, China), and mouse PVR protein (50259-M03H, Sino Biological, Beijing, China) were used. PE-conjugated anti-human IgG antibody was used to detect the Fc protein bind to cells. Cells incubated with the Fc proteins and anti-human IgG antibody without the SMIs serve as the positive control. The mean fluorescent intensity (MFI) of each sample was detected and recorded by a flow cytometry. The blocking efficacy of the SMIs was calculated as the equation: (MFI of the positive control-MFI of the SMI)/MFI of the positive control × 100%.
# The small molecule inhibitor could not only bind to the target; most importantly, it should interfere with the receptor–ligand interactions. Subsequently, the candidate inhibitors were screened by the blocking assays with the established CD47 and TIGIT over-expressing cell lines. The test was initialed with a preliminary screening of the candidates with a single concentration (Figure 2D). Generally, the SMI blocking efficacy to the CD47/SIRPα interaction was much higher than that of the TIGIT/PVR. […] Therefore, the SMI-F11 and SMI-F17 may exert dual blocking effects in the CD47/SIRPα and TIGIT/PVR pathways. Blocking assays with a concentration gradient of the SMI were further performed to validate the preliminary screening. […] The similar blocking assays with the mouse CD47 and TIGIT over-expressing cells were also performed. […] Considering that most pairs of the immune checkpoints interact with the corresponding ligand in parallel forms, the blocking assays with the PD-1/PD-L1 interaction system was also conducted to test the specificity.
# T1 sequence (P78324 31-370 limits assumed): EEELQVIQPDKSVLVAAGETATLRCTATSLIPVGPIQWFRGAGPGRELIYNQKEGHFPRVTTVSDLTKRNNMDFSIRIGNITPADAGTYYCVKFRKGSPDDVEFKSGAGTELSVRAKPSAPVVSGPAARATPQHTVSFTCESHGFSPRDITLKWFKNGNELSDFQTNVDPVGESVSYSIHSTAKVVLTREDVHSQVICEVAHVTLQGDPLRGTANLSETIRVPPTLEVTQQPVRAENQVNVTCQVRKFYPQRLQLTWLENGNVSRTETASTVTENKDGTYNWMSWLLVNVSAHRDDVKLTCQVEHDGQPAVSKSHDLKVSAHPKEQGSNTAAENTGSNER
structure (smiles),measurement,setting,value
CC1=C(C(=O)OC(C)C)C(c2cccc([N+](=O)[O-])c2)C(C(=O)OC2CN(C(c3ccccc3)c3ccccc3)C2)=C(N)N1 (stereo not drawn) [Azelnidipine],differentiation and activation of THP-1 macrophages,[1],inhibit the differentiation and activation
same,phagocytosis of MC38 cells by BMDM cells,[2],significantly enhance
same,"blocking efficacy, CD47/SIRPα interaction",[3],more than 50%
